Assay [1] deals with T1, Human recombinant Vanin-1 (VNN1) (Homo sapiens, UniProt O95497).
T1 construct: purchased Sino Biological Inc. 11662-H08H
T1 sequence (O95497 22-491): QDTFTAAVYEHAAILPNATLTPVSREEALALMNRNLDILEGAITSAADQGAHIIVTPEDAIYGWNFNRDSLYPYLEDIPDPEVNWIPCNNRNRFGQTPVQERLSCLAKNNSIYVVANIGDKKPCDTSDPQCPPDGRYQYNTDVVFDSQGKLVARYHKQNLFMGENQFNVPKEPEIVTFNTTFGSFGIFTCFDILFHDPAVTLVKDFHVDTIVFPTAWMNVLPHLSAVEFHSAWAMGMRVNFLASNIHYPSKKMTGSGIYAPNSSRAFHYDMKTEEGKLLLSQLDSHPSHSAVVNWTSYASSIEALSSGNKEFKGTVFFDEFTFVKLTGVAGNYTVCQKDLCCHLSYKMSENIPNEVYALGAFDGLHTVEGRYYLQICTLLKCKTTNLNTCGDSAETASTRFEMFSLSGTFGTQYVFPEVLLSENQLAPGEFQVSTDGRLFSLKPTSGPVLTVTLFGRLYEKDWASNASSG
Put plainly: Vanin-1 enzymatic assay (fluorescence intensity, Pantothenate-AMC substrate). The settings on record: purified recombinant human Vanin-1 0.5 nM; 30 min preincubation at 30° C.; Pantothenate-AMC 30 μM, 60 min. The class given is biochemical. Here is the method: Human recombinant Vanin-1 (VNN1) was purchased from Sino Biological Inc. (Catalog Number: 11662-H08H).
Measurement of VNN1 inhibition is performed in 384-well format based on fluorescence intensity assay. Purified recombinant human Vanin-1 (0.5 nM) and threefold serial diluted compounds in 3% DMSO (range of concentrations from 30 μM to 1.524 nM) or controls (3.0% DMSO) are incubated for 30 minutes at 30° C. with gentle agitation in assay buffer containing 100 mM potassium Phosphate Buffer (KPi), pH 7.5, 0.001% Bovine Serum Albumin (BSA), 0.5 mM dithiothreitol (DTT) and 0.0025% Brij-35. The reaction is initiated by the addition of the fluorogenic substrate, Pantothenate-AMC, at a concentration of 30 μM. After 60 minutes of incubation at 30° C. with gentle agitation, fluorescence intensity is measured at λex=350 nm and λem=450 nm with a fluorescence reader (BMG PHERAstar reader or equivalent).

The target in assay [2] is T2, Vanin-1 in SUIT-S2 cell line (Homo sapiens, UniProt O95497).
T2 construct: endogenous in cells; host or cells: SUIT-S2 cell line (ATCC # CRL1596)
T2 sequence (O95497 22-491): T1 sequence (O95497 22-491)
As to the kind of experiment: Vanin-1 cell-based mechanistic assay (fluorescence intensity, Pantothenate-AMC substrate). The settings on record: 40000 cells per well, 2 hours incubation at 37° C., Pantothenate-AMC 30 μM, 30 min. The method, then: Vanin-1 Cell-Based Mechanistic Assay:
The cellular activity of the examples is measured in 96-well format based on fluorescence intensity assay using SUIT-S2 cell line (ATCC # CRL1596).
Cells are cultured at 37° C. with 5% CO2 to 80-90% confluence and then washed once with phosphate-buffered saline (PBS). Adherent cells are detached with PBS-EDTA and once in suspension 40000 cells are dispensed in 90 μl of PBS in 96-well black plates with clear bottoms. Threefold serial dilutions of test compounds are made in DMSO and then solubilized in PBS, dilution range 1:30. Cells and serial diluted test compounds (final concentrations 10 μM to 4.6 nM) or controls (PBS/0.3% DMSO) are incubated for 2 hours at 37° C. with 5% CO2. The reaction is initiated by the addition of the fluorogenic substrate, Pantothenate-AMC, at a concentration of 30 μM. After 30 minutes of incubation at 30° C. with gentle agitation, fluorescence intensity is measured at λex=350 nm and λem=450 nm with a fluorescence reader (BMG PHERAstar reader or equivalent).

Our source for the IC50 values is patent publication US9585891B2 (MERCK PATENT GMBH, priority 2012, dated 2017).

The term IC50 denotes the concentration that gives 50% inhibition. Consider `CC(C)(CO)[C@@H](O)C(=O)NCCC(=O)C(=O)NCC1CCCCC1` [Example 11, (R)—N-[3-(Cyclohexylmethyl-carbamoyl)-3-oxo-propyl]-2,4-dihydroxy-3,3-dimethyl-butyramide], for which the half-inhibitory concentration (IC50) was 30 nM in assay [1] and 73 nM in assay [2].

As for `CC(C)(CO)[C@@H](O)C(=O)NCCC(=O)C(=O)NCCc1cccs1` [Example 14, (R)-2,4-Dihydroxy-3,3-dimethyl-N-[3-oxo-3-(2-thiophen-2-yl-ethylcarbamoyl)-propyl]-butyramide], the half-maximal inhibitory concentration (IC50) in assay [1] was 50 nM; in assay [2], 90 nM.

As to `CC(C)(CO)[C@@H](O)C(=O)NCCC(=O)C(=O)NCc1cccc(OC(F)(F)F)c1` [Example 15, (R)-2,4-Dihydroxy-3,3-dimethyl-N-[3-oxo-3-(3-trifluoromethoxy-benzylcarbamoyl)-propyl]-butyramide], the IC50 in assay [1] amounted to 50 nM; in assay [2], 140 nM.

In the case of `CC(C)(CO)[C@@H](O)C(=O)NCCC(=O)C(=O)NCc1ccc(F)cc1` [Example 17, (R)—N-[3-(4-Fluoro-benzylcarbamoyl)-3-oxo-propyl]-2,4-dihydroxy-3,3-dimethyl-butyramide], the values for the IC50 in assay [1] and in assay [2] were 30 nM and 20 nM, respectively.

`CC(C)(CO)[C@@H](O)C(=O)NCCC(=O)C(=O)NCc1cccc2ccccc12` [Example 19, (R)-2,4-Dihydroxy-3,3-dimethyl-N-{3-[(naphthalen-1-ylmethyl)-carbamoyl]-3-oxo-propyl}-butyramide]: the IC50 was determined as 30 nM in assay [1] and 50 nM in assay [2].

On to `COc1cccc(CNC(=O)C(=O)CCNC(=O)[C@H](O)C(C)(C)CO)c1` [Example 22, (R)-2,4-Dihydroxy-N-[3-(3-methoxy-benzylcarbamoyl)-3-oxo-propyl]-3,3-dimethyl-butyramide], for which the IC50 in assay [1] was 60 nM; in assay [2], 30 nM.

In the case of `CC(C)(CO)[C@@H](O)C(=O)NCCC(=O)C(=O)NCc1ccccc1C(F)(F)F` [Example 23, (R)-2,4-Dihydroxy-3,3-dimethyl-N-[3-oxo-3-(2-trifluoromethyl-benzylcarbamoyl)-propyl]-butyramide], the IC50 is 70 nM in assay [1] and 50 nM in assay [2].

For `CC(C)(CO)[C@@H](O)C(=O)NCCC(=O)C(=O)NCc1ccc(S(C)(=O)=O)cc1` [Example 24, (R)-2,4-Dihydroxy-N-[3-(4-methanesulfonyl-benzylcarbamoyl)-3-oxo-propyl]-3,3-dimethyl-butyramide], the IC50 in assay [1] is 10 nM; in assay [2] it was < 10 nM.

For `CC(C)(CO)[C@@H](O)C(=O)NCCC(=O)C(=O)NCc1cccc(OCCNS(C)(=O)=O)c1` [Example 26, (R)-2,4-Dihydroxy-N-{3-[3-(2-methanesulfonylamino-ethoxy)-benzylcarbamoyl]-3-oxo-propyl}-3,3-dimethyl-butyramide], the IC50 worked out at 380 nM in assay [1] and 260 nM in assay [2].

With `CC(C)(CO)[C@@H](O)C(=O)NCCC(=O)C(=O)NCc1ccc(-c2ccccc2)cc1` [Example 28, (R)—N-{3-[(Biphenyl-4-ylmethyl)-carbamoyl]-3-oxo-propyl}-2,4-dihydroxy-3,3-dimethyl-butyramide], the concentration for half-maximal inhibition (IC50) in assay [1] worked out at 20 nM; in assay [2], 100 nM.

Turning to `CC(C)(CO)[C@@H](O)C(=O)NCCC(=O)C(=O)NCc1ccc(Br)cc1` [Example 31, (R)—N-[3-(4-Bromo-benzylcarbamoyl)-3-oxo-propyl]-2,4-dihydroxy-3,3-dimethyl-butyramide], the results for the half-maximal inhibitory concentration (IC50) in assay [1] and in assay [2] were < 10 nM and 10 nM, respectively.

Take `CC(C)(CO)[C@@H](O)C(=O)NCCC(=O)C(=O)NCc1ccc(C(=O)NCCc2ccc(Oc3ccccc3)cc2)cc1` [Example 32, 4-{[4-((R)-2,4-Dihydroxy-3,3-dimethyl-butrylamino)-2-oxo-butyrylamino]-methyl)-N-[2-(4-phenoxy-phenyl)-ethyl]-benzamide]: the IC50 in assay [1] and in assay [2] was < 10 nM throughout.

Regarding `CC(C)(CO)[C@@H](O)C(=O)NCCC(=O)C(=O)NCc1ccc(S(=O)(=O)N2CCCCC2)cc1` [Example 33, (R)-2,4-Dihydroxy-3,3-dimethyl-N-{3-oxo-3-[4-(piperidine-1-sulfonyl)-benzylcarbamoyl]-propyl}-butyramide], the IC50 in assay [1] and in assay [2] was < 10 nM in each case.

`CC(C)(CO)[C@@H](O)C(=O)NCCC(=O)C(=O)NCc1ccc(OCCNS(C)(=O)=O)cc1` [Example 39, (R)-2,4-Dihydroxy-N-(3-[4-(2-methanesulfonylamino-ethoxy)-benzylcarbamoyl]-3-oxo-propyl)-3,3-dimethyl-butyramide]: the IC50 in assay [1] was 20 nM; in assay [2], < 10 nM.

For `CC(C)(CO)[C@@H](O)C(=O)NCCNC(=O)CCl` [Example 57, (R)—N-[2-(2-Chloro-acetylamino)-ethyl]-2,4-dihydroxy-3,3-dimethyl-butyramide], the half-maximal inhibitory concentration (IC50) in assay [1] was 2540 nM; in assay [2], 1110 nM.

`CC(C)(CO)[C@@H](O)C(=O)NCCN(CCCc1ccccc1)C(=O)CCl` [Example 58, (R)—N-{2-[(2-Chloro-acetyl)-(3-phenyl-propyl)-amino]-ethyl}-2,4-dihydroxy-3,3-dimethyl-butyramide]: the figures for the IC50 in assay [1] and in assay [2] were 2480 nM and 220 nM, respectively.

`CC(C)(CO)[C@@H](O)C(=O)NCCN(CCc1ccccc1)C(=O)CCl` [Example 59, (R)—N-{2-[(2-Chloro-acetyl)-phenethyl-amino]-ethyl}-2,4-dihydroxy-3,3-dimethyl-butyramide]: the half-maximal inhibitory concentration (IC50) in assay [1] amounted to 4040 nM; in assay [2] it was 1200 nM.

Take `CC(C)(CO)[C@@H](O)C(=O)NCCN(Cc1ccccc1)C(=O)CCl` [Example 60, (R)—N-{2-[Benzyl-(2-chloro-acetyl)-amino]-ethyl}-2,4-dihydroxy-3,3-dimethyl-butyramide]: the half-maximal inhibitory concentration (IC50) in assay [1] turned out to be 3570 nM; in assay [2], 600 nM.

For `CC(C)(CO)[C@@H](O)C(=O)NCCN(CCOc1ccc(C#N)cc1)C(=O)CCl` [Example 61, (R)—N-(2-{(2-Chloro-acetyl)-[2-(4-cyano-phenoxy)-ethyl]-amino}-ethyl)-2,4-dihydroxy-3,3-dimethyl-butyramide], the IC50 in assay [1] was found to be 3280 nM; in assay [2], 220 nM.

For the compound `CC(C)(CO)[C@@H](O)C(=O)NCCN(CC1CCN(c2ccc(C#N)cc2)CC1)C(=O)CCl` [Example 62, (R)—N-(2-{(2-Chloro-acetyl)-[1-(4-cyano-phenyl)-piperidin-4-ylmethyl]-amino}-ethyl)-2,4-dihydroxy-3,3-dimethyl-butyramide], the results for the concentration for half-maximal inhibition (IC50) in assay [1] and in assay [2] were 1360 nM and 210 nM, respectively.
